Results as given in patent publication EP0445023A1, “Vehicle for a therapeutically active agent for external use and antiseptic preparation comprising said vehicle” (INNOTHERA, priority 1990, dated 1991).

Test: ex vivo transcutaneous passage
Assay type: in vitro ADME
Conditions: peau épilée ou rasée de rats, applied as the antiseptic preparation

Compound: O=C(Nc1ccc(Cl)cc1)Nc1ccc(Cl)c(Cl)c1 [principe actif, trichloro-3,4,4′ carbanilide]
- passage transcutané du principe actif: n'ont pas permis de déceler un passage transcutané
